Assay results: patent publication EP1961738A1, “New compounds with antiglutamatergic properties and uses thereof” (Faust Pharmaceuticals, priority 2007, dated 2008)

System: cerebrospinal fluid glutamate level
Experiment: Intracerebroventricular retrodialysis in rats with enzymatic chemiluminescent glutamate determination in microdialysates
Assay type: in vivo, Sprague-Dawley rats
Experimental: For this example, intracerebroventricular retrodialysis was performed on rats according to techniques known to those skilled in the art. The analysis of microdialysates was performed according to Israël and collaborators' publication (Neurochem Int 22(1): 53-58, 1993). Procedures are described below:
Surgery was performed on adult male Sprague-Dawley rats weighing 330-340g at the time of surgery. Following induction of anaesthesia with intraperitoneal administration of ketamine/xylazine, animals were secured in a stereotaxic frame in the flat-skull position at a constant setting of -3.3mm between ear and incisor bars. After defining the "stereotaxic zero" in accordance with Paxinos and Watson's atlas (1986), a microdialysis guide cannula was directed towards the right lateral ventricle with the coordinates from Bregma: anteroposterior -0.8mm, mediolateral +1.5mm, and dorsoventral (DV) -1.5mm (CMA12 probe: 2mm membrane) (Khandewal et al., J Neurosci Methods 133(1-2): 181-189, 2004).
The guide cannula was fixed to the skull using dental cement and three stainless steel screws. […]
Samples were subsequently analysed for glutamate determination using an enzymatic assay (Israël et al., 1993). The procedure is based on the oxidation of L-glutamate […] with subsequent NADH production, the NADH being continuously evaluated using the photobacterium chemiluminescent reaction at 460-490nm. […]

Q: How did the “response of cerebrospinal fluid glutamate level to the compound” value (rat C (one rat out of five), 30µM solution by retrodialysis for 40min) turn out when `NC(=O)NN=C1C=Cc2ccc(OCCN3CCOCC3)cc2C1=O` [Example 13, 7-(2-morpholin-4-yl-ethoxy) naphtalene-1,2-dione2-semicarbazone] was run?
A: did not response

Q: And the “decrease of the cerebrospinal fluid glutamate level” value (rats A, B, D and E (four of five), 30µM solution by retrodialysis for 40min into right lateral ventricle, after 80 minutes, relative to baseline set at 100%)?
A: up to 50%
